Patent US9638702B2 (priority 2001, dated 2017)
Like-named read-outs stand apart in the source and are kept apart here.

Tests used:
[1] = format: physicochemical
[2] = format: physicochemical; remark: listed apart in the source

poly-L-lysine
CD minimum ([1]; pH 7): approximately 205 nm
CD minimum ([1]; pH 11): approximately 216 nm
absorbance plateau ([2]; pH 7): approximately 0.22
absorbance plateau ([2]; pH 11): approximately 0.12
